According to PMC5574609, “Potential role of an antimicrobial peptide, KLK in inhibiting lipopolysaccharide-induced macrophage inflammation” (PLoS ONE, 2017):
Bridge positions count the residues as written; N and C are the ends. Ends that are not written are not given here. Peptide text beside a SMILES is read from it.

How the values were obtained:
Assay type in all cases: cell-based, murine
[1] = tested on: PGE2 production in LPS-stimulated RAW 264.7 cells; assay: PGE2 production, enzyme-immunoassay; conditions: LPS 1 µg/mL + indomethacin 10 µM, 48 h
Procedure: Sigma, St. Louis, MO, USA) in the presence or absence of various concentrations of the test peptide and then incubated at 37°C in 5% CO2 for 48 h. Indomethacin (10 μM; Sigma, St. Louis, MO, USA) was included as a positive control. […] Sigma). Culture supernatant was collected and the nitrite (a stable breakdown product of NO) accumulated in culture supernatant was then determined by the Griess reagent system (Promega, Madison, USA). Briefly, 50 μL of culture supernatant was mixed with an equal volume of 1% sulfanilamide in 5% phosphoric acid. […] The absorbance was measured at 540 nm using a microplate reader (Rayto RT-2100C, China) and nitrite concentrations were determined using a sodium nitrite standard curve. The PGE2 levels in culture medium were quantified by enzyme-immunoassay (R&D Systems, Minneapolis, MN, USA) according to the manufacturer’s instructions.

[2] = tested on: NO production in LPS-stimulated RAW 264.7 cells; assay: Pre-treatment with or without wash, then LPS; NO by Griess; conditions: 10 µg/mL pre-treatment 1 h, washed, LPS 1 µg/mL 48 h
Procedure: RAW 264.7 cells at 1×10^5 cells/well were stimulated with 1 μg/mL LPS (Escherichia coli 0111:B4; Sigma, St. Louis, MO, USA) in the presence or absence of various concentrations of the test peptide and then incubated at 37°C in 5% CO2 for 48 h. Indomethacin (10 μM; Sigma, St. Louis, MO, USA) was included as a positive control. Where appropriate, cells were pre-incubated with the test peptide for 1 h, and washed three times with sterile PBS before incubation with LPS (1 μg/mL; Sigma). Culture supernatant was collected and the nitrite (a stable breakdown product of NO) accumulated in culture supernatant was then determined by the Griess reagent system (Promega, Madison, USA). […] The absorbance was measured at 540 nm using a microplate reader (Rayto RT-2100C, China) and nitrite concentrations were determined using a sodium nitrite standard curve. The PGE2 levels in culture medium were quantified by enzyme-immunoassay (R&D Systems, Minneapolis, MN, USA) according to the manufacturer’s instructions.
To investigate whether the ability of KLK peptide to inhibit LPS-induced signaling was due to KLK-LPS binding, experiments were performed in which RAW 264.7 cells were pre-treated with the KLK peptide for 1 h and then thoroughly washed to remove exogenous peptide. The cells were subsequently stimulated with LPS and pro-inflammatory mediator (NO) measured in cell-free supernatant after 48 hr. […]

[3] = tested on: IL-1β production in LPS-stimulated RAW 264.7 cells; assay: IL-1β production, sandwich ELISA; conditions: LPS 1 µg/mL, 72 h, mean ± SD
Procedure: (§1) The pro-inflammatory cytokines (IL-1β and TNF-α)were determined by sandwich enzyme-linked immunosorbent assay (ELISA). RAW 264.7 cells (1×10^5 cells/well) were seeded into a 96-well microtiter plate (Nunc™) and stimulated with LPS (1 μg/mL; Sigma) in the presence or absence of each peptide at different concentrations. After 72 h of incubation, the culture supernatant was collected and cytokine concentrations measured using ELISA MAX™ Deluxe Set (BioLegend, San Diego, CA, USA), following the manufacturer’s protocol.

[4] = tested on: TNF-α production in LPS-stimulated RAW 264.7 cells; assay: TNF-α production, sandwich ELISA; conditions: LPS 1 µg/mL, 72 h, mean ± SD
Procedure: as §1

[5] = tested on: NO production in LPS-stimulated RAW 264.7 cells; assay: LPS-stimulated NO production (nitrite, Griess); conditions: peptide 1 µg/mL, LPS 1 µg/mL, 48 h, mean ± SD
Procedure: RAW 264.7 cells at 1×10^5 cells/well were stimulated with 1 μg/mL LPS (Escherichia coli 0111:B4; Sigma, St. Louis, MO, USA) in the presence or absence of various concentrations of the test peptide and then incubated at 37°C in 5% CO2 for 48 h. Indomethacin (10 μM; Sigma, St. Louis, MO, USA) was included as a positive control. Where appropriate, cells were pre-incubated with the test peptide for 1 h, and washed three times with sterile PBS before incubation with LPS (1 μg/mL; Sigma). Culture supernatant was collected and the nitrite (a stable breakdown product of NO) accumulated in culture supernatant was then determined by the Griess reagent system (Promega, Madison, USA). Briefly, 50 μL of culture supernatant was mixed with an equal volume of 1% sulfanilamide in 5% phosphoric acid. After incubation for 10 min at room temperature, 50 μL of 0.1% N-1-napthylethylenediamine dihydrochloride was added and incubated for another 10 min at room temperature. The absorbance was measured at 540 nm using a microplate reader (Rayto RT-2100C, China) and nitrite concentrations were determined using a sodium nitrite standard curve. The PGE2 levels in culture medium were quantified by enzyme-immunoassay (R&D Systems, Minneapolis, MN, USA) according to the manufacturer’s instructions.

COc1ccc2c(c1)c(CC(=O)O)c(C)n2C(=O)c1ccc(Cl)cc1 [Indomethacin]
PGE2 ([1]; exp. 1): 783.5 pg/mL
PGE2 ([1]; exp. 2): 716 pg/mL
PGE2 ([1]; mean of n = 2): 749.7 pg/mL

polymyxin B [PMB]
effect of removing exogenous compound by washing before LPS on NO inhibition [2]: significantly affected

CC(C)C[C@@H]1NC(=O)[C@H](CCCCN)NC(=O)[C@H](CC(C)C)NC(=O)[C@H](CC(C)C)NC(=O)[C@H](CC(C)C)NC(=O)[C@H](CC(C)C)NC(=O)[C@H](CC(C)C)NC(=O)[C@H](CCCCN)NC(=O)[C@H](CC(C)C)NC(=O)[C@H](CCCCN)NC(=O)[C@H](CCCCN)NC1=O [CYCKLK] (HELM PEPTIDE1{K.L.K.L.L.L.L.L.K.L.K}$PEPTIDE1,PEPTIDE1,1:R1-11:R2$$$V2.0)
IC50 for IL-1β production [3]: 8.83 ± 1.31 mg/L
IC50 for TNF-α production [4]: 0.91 ± 0.07 mg/L
inhibitory rate of LPS-stimulated NO production [5]: 79.26 ± 3.17%

CKLKLLLLLKLKC (disulfide 1-13 (inferred)) [SSKLK, KLK with cysteine residues added to both N and C-terminal ends]
IC50 for TNF-α production [4]: 1.79 ± 0.01 mg/L
inhibitory rate of LPS-stimulated NO production [5]: 70.77 ± 1.55%
